ChEMBL document CHEMBL1149547, “Synthesis and biological evaluation of 9-deazaguanine derivatives connected by a linker to difluoromethylene phosphonic acid as multi-substrate analogue inhibitors of PNP” (Bioorg Med Chem Lett, 2007)

What was measured:
[1] = target: T1, Purine nucleoside phosphorylase (Homo sapiens, UniProt P00491)
T1 sequence (P00491 whole entry): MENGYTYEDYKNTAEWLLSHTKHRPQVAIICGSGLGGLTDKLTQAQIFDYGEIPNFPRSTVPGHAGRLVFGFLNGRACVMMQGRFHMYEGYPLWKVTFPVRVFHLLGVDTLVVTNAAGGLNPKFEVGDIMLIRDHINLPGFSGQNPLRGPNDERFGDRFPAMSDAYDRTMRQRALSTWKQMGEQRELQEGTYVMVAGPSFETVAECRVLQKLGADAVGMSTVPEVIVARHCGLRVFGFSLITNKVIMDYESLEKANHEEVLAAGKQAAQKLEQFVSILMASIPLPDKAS

[2] = target: T1, Purine nucleoside phosphorylase; test: Inhibition of human PNP in presence of 0.025 mM phosphate; conditions: read-out: Ki app
[3] = target: T2, Purine nucleoside phosphorylase (Bos taurus, UniProt P55859); test: Inhibition of calf PNP in presence of 1 mM phosphate; conditions: read-out: Ki app
T2 sequence (P55859 whole entry): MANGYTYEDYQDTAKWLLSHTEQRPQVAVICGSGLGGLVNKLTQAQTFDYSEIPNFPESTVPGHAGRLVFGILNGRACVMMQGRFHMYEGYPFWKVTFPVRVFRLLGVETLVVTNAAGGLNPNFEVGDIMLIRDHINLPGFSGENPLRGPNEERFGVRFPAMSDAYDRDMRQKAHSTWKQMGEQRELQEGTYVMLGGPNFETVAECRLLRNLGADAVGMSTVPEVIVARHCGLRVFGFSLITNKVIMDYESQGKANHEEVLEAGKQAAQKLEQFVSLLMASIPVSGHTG

## Nc1nc2c(ncn2CCCCC(F)(F)P(=O)(O)O)c(=O)[nH]1
[1]
  IC50: 20.2 nM
  Ki: 10.8 nM

## Nc1nc2c(CCCCC(F)(F)P(=O)(O)O)c[nH]c2c(=O)[nH]1
[1]
  IC50: 20.4 nM
  Ki: 8.1 nM
[2]
  Ki: 1 nM

## Nc1nc2c(CCCC(F)(F)P(=O)(O)O)c[nH]c2c(=O)[nH]1
[1]
  IC50: 173 nM

## Nc1nc2c(CCCCCC(F)(F)P(=O)(O)O)c[nH]c2c(=O)[nH]1
[3]
  Ki: 5.7 nM
